O=[N+]([O-])c1ccc(S(=O)(=O)[O-])cc1.[Na+]
solubility (mole fraction)
Details	283.15 K	288.15 K	293.15 K	298.15 K	303.15 K	308.15 K	313.15 K	318.15 K	323.15 K
in THF	0.000109	0.000112	0.000117	0.000122	0.000127	0.000132	0.000138	0.000145	0.000156
in acetone	0.012	0.014	0.0161	0.0182	0.0206	0.0229	0.0258	0.029	0.0323
in cyclohexanone	0.000906	0.000913	0.000917	0.000927	0.000938	0.000954	0.000967	0.000991	0.00101
in ethanol	0.00104	0.00118	0.00133	0.00147	0.00164	0.0018	0.00204	0.00232	0.0026
in ethyl acetate	8.84e-05	9.96e-05	0.000109	0.00012	0.000131	0.000143	0.000157	0.000175	0.000193
in n-butanol	0.000318	0.000405	0.000498	0.000597	0.000699	0.000798	0.000947	0.00111	0.00131
